Laboratory results from PMC6158578, “Optimization and Lead Selection of Benzothiazole Amide Analogs Toward a Novel Antimycobacterial Agent” (Frontiers in Microbiology, 2018).
≈ marks a conversion by molar mass, not a printed value. Read-outs that look alike come from different tables or passages of the source.

Assays:
M. abscessus 1 = assay: MIC in MHB versus 7H9+OADC; type: cell-based
[1] = system: M. abscessus (n = 20) clinical isolates; assay: MIC against rapid-growing NTM clinical isolates; type: cell-based; conditions: M. abscessus (n = 20)
physchem = type: physicochemical; conditions: pH 7.4, aqueous buffer, thermodynamic from solid
Procedure: (§1) ADMET assays were performed through NIAID Preclinical Services and Eurofins. Potential for cytotoxicity was monitored in HepG2 cells after 72 h growth in the presence of test compounds, either prepared as 10-point 3-fold serial dilutions or at a fixed 10 μM concentration. Cell viability was measured using the CellTiter-Glo® Luminescent Cell Viability Assay (Promega) or via fluorescent image analysis. Cytotoxicity was expressed as IC50 or as percent reduction of viable cells relative to a reference compound. Metabolic stability of compounds was evaluated via incubation with human liver microsomes at 37°C and quantitative analysis of parent compound by LC-MS/MS in samples removed at 0, 5, 15, 30, and 45 min (Obach, [1999]). For cytochrome P450 (CYP) inhibition assays, compounds were prepared as a 7-point dilution series and incubated with human liver microsomes in buffer containing 2 mM NADPH and probe substrate. […] Thermodynamic solubility of compounds in aqueous media was determined by incubation in 50 mM potassium phosphate buffer (pH 7.4) for 24 h, followed by HPLC-UV detection of compound in the filtrate (Analiza, Cleveland, OH, United States).

[2] = system: M. chelonae (n = 11) clinical isolates; assay: MIC against rapid-growing NTM clinical isolates; type: cell-based; conditions: M. chelonae (n = 11)
[3] = system: mycolic acid transfer in Mabs ATCC19977; assay: Metabolic labeling with [14C]acetate; type: cell-based, M. abscessus; conditions: 2x and 10x MIC
M. abscessus 79 = assay: MIC in MHB versus 7H9+OADC; type: cell-based
M. fortuitum 41 = assay: MIC, broth microdilution with resazurin (MHB, 3 days); type: cell-based; conditions: Mycolicibacterium fortuitum; M. fortuitum 41; read-out: MIC
equine erythrocytes = assay: Hemolysis assay; conditions: up to 128 μg/mL, 10 min, room temperature
S. aureus ATCC 29213 = assay: MIC, spectrum of activity; type: cell-based; conditions: Staphylococcus aureus, ATCC29213; S. aureus ATCC 29213; read-out: MIC
[4] = system: M. peregrinum ATCC 700686; assay: MIC, broth microdilution with resazurin (MHB, 3 days); type: cell-based; conditions: Mycolicibacterium peregrinum, ATCC700686; M. peregrinum ATCC 700686; read-out: MIC
M. abscessus ATCC 19977 = assay: as above; type: cell-based; conditions: Mycobacteroides abscessus, ATCC19977; M. abscessus ATCC 19977; read-out: MIC
P. aeruginosa ATCC 35151 = assay: MIC, spectrum of activity; type: cell-based; conditions: Pseudomonas aeruginosa, ATCC35151; P. aeruginosa ATCC 35151; read-out: MIC
in vitro = in vitro ADME; conditions: human, microsomes
Procedure: as §1

M. chelonae 93 = assay: MIC, broth microdilution with resazurin (MHB, 3 days); type: cell-based; conditions: Mycobacteroides chelonae; M. chelonae 93; read-out: MIC
Other NTM (n = 12) = assay: MIC against rapid-growing NTM clinical isolates; type: cell-based; conditions: Other NTM (n = 12)
M. chimaera 1502055 = assay: MIC, Middlebrook medium (7H9 + OADC, 7 days); type: cell-based; conditions: 168 h; M. chimaera 1502055; read-out: MIC
[5] = system: M. abscessus massiliense 119; assay: MIC, broth microdilution with resazurin (MHB, 3 days); type: cell-based; conditions: Mycobacteroides abscessus; M. abscessus massiliense 119; read-out: MIC
[6] = system: E. coli ATCC 25922 + PMBN (permeabilized); assay: MIC, spectrum of activity; type: cell-based; conditions: Escherichia coli, ATCC25922
Mtb H37Rv = type: cell-based, M. tuberculosis
[7] = system: M. tuberculosis H37Rv mc^2 6206; assay: microbe, parasite or virus in culture; type: cell-based; conditions: Mycobacterium tuberculosis, 168 h
E. faecalis ATCC 29212 = assay: MIC, spectrum of activity; type: cell-based; conditions: Enterococcus faecalis, ATCC29212; E. faecalis ATCC 29212; read-out: MIC
M. abscessus 21 = assay: MIC in MHB versus 7H9+OADC; type: cell-based
M. intracellulare 1956 = assay: MIC, Middlebrook medium (7H9 + OADC, 7 days); type: cell-based; conditions: Mycobacterium intracellulare, 168 h; M. intracellulare 1956; read-out: MIC
[8] = system: M. fortuitum (n = 11) clinical isolates; assay: MIC against rapid-growing NTM clinical isolates; type: cell-based; conditions: M. fortuitum (n = 11)
S. pneumoniae ATCC 49619 = assay: MIC, spectrum of activity; type: cell-based; conditions: Streptococcus pneumoniae, ATCC49619; S. pneumoniae ATCC 49619; read-out: MIC
HepG2 cytotoxicity, 72 h = type: cell-based; conditions: human, HepG2 cells, HepG2, 72 h, read-out: HepG2 cytotox., IC50
Procedure: as §1

[9] = Mouse oral PK and tolerability; type: in vivo, female CD-1 mice; conditions: oral 100 mg/kg
Solubility in corn oil = conditions: oil or lipid
[10] = system: E. coli tolC CGSC 5633 (efflux mutant strain); assay: microbe, parasite or virus in culture; type: cell-based; conditions: Escherichia coli

SMILES: CC12CC3CC(C)(C1)CC(C(=O)Nc1nc4ccc(OC(F)(F)F)cc4s1)(C3)C2 [CRS400226]
- MIC (M. abscessus 1; M. abscessus 1, 7H9 + OADC (5 mg/mL albumin)): 8 mg/L
- MIC (M. abscessus 1; M. abscessus 1, MHB): 0.25 mg/L (≈ 0.589 µM)
- MIC range [1]: 0.25 to 2 mg/L
- MIC90 ([1]; Mycobacteroides abscessus, read-out: MIC90): 0.5 mg/L (≈ 1.18 µM)
- solubility at 24 h (physchem): < 3 µM
- MIC range [2]: 0.5–0.5 μg/mL
- MIC90 ([2]; Mycobacteroides chelonae, read-out: MIC90): 0.5 mg/L (≈ 1.18 µM)
- effect on mycolic acid transfer to arabinogalactan and trehalose dimycolates [3]: concentration-dependent inhibition of mycolic acid transfer
- MIC (M. abscessus 79; M. abscessus 79, 7H9 + OADC (5 mg/mL albumin)): 2 mg/L
- MIC (M. abscessus 79; M. abscessus 79, MHB): 0.25 mg/L (≈ 0.589 µM)
- MIC (M. fortuitum 41): 0.12 mg/L (≈ 0.283 µM)
- Hemolysis (equine erythrocytes): 128 µg/mL
- MIC (S. aureus ATCC 29213): > 64 mg/L
- MIC [4]: ≤ 0.06 mg/L
- MIC (M. abscessus ATCC 19977): 0.25 mg/L (≈ 0.589 µM)
- MIC (P. aeruginosa ATCC 35151): > 64 mg/L
- microsomal CLint (in vitro): 124 µL/min/mg
- MIC (M. chelonae 93): 0.5 mg/L (≈ 1.18 µM)
- MIC range (Other NTM (n = 12)): 0.12 to 1 mg/L
- MIC90 (Other NTM (n = 12); read-out: MIC90): 0.5 mg/L (≈ 1.18 µM)
- MIC (M. chimaera 1502055): 1 mg/L
- MIC [5]: 0.25 mg/L (≈ 0.589 µM)
- MIC [6]: > 64 mg/L
- reduction in Mtb in time-kill assay (Mtb H37Rv): 3 Log10 CFU
- time-kill kinetics, result in words (Mtb H37Rv): bactericidal activity
- MIC [7]: 0.5 mg/L (≈ 1.18 µM)
- lung histology (Mabs 21; after 4 weeks of treatment): only very mild areas of airway-centric inflammation
- reduction of lung CFU compared to the vehicle control (Mabs 21; intratracheal 25 mg/kg once daily, 5 days per week, 4 weeks, 5% corn oil/saline emulsion): 0.64 Log10 CFU
- tolerability (Mabs 21; up to 4 weeks of treatment, intratracheal 25 mg/kg): well tolerated
- MIC (E. faecalis ATCC 29212): > 64 mg/L
- MIC (M. abscessus 21; M. abscessus 21, 7H9 + OADC (5 mg/mL albumin)): 8 mg/L
- MIC (M. abscessus 21; M. abscessus 21, MHB): 0.25 mg/L (≈ 0.589 µM)
- MIC (M. intracellulare 1956): 1 mg/L
- MIC range [8]: 0.12 to 0.5 mg/L
- MIC90 ([8]; Mycolicibacterium fortuitum, read-out: MIC90): 0.5 mg/L (≈ 1.18 µM)
- MIC (S. pneumoniae ATCC 49619): 64 mg/L (≈ 151 µM)
- IC50 at 72 h (HepG2 cytotoxicity, 72 h): 69 µM
- IC50 at 72 h (HepG2 cytotoxicity, 72 h; value in brackets): 29 mg/L
- concentration at 1 h ([9]; mouse, plasma, female CD-1 mice, 1 h, read-out: plasma level): 2.3 µg/mL
- concentration at 8 h ([9]; mouse, plasma, female CD-1 mice, 8 h, read-out: plasma level): 2 µg/mL
- tolerability of oral dosing ([9]; mice): highly tolerated
- solubility (Solubility in corn oil): ≤ 250 mg/mL
- MIC [10]: > 64 mg/L
